The source of these data is US20220193170A1, “Nutraceutical Reduction Prevention and/or Reversion of Multiple Sclerosis” (Therapeutic Solutions International, Inc., priority 2020, published 2022).

Assay [1] relates to oxygen-induced retinopathy. Conditions: OIR mice; UDCA 50 mg/kg, P7-P17; cited from earlier work.
In the next assay the test system is osteoblasts. Conditions: in vitro, cited from earlier work.
A further assay relates to acute pancreatitis. The settings on record: AP mice gavaged with TUDCA; cited from earlier work.
The next assay relates to IL-6 production. Conditions: cited from earlier work.
For the next assay, the system named is osteoporosis. Conditions: OVX mice, vs PBS treatment group, cited from earlier work.
For assay [2], the system named is Experimental autoimmune encephalomyelitis. In words: Experimental autoimmune encephalomyelitis (EAE) clinical score. It counts as in vivo. The settings on record: female SJL/J mice, by gavage, alone and/or with Copaxone, observed at days 10, 20 and 30; bar graph. The procedure: Experimental autoimmune encephalomyelitis was induced in female SJL/J (6-8 weeks old) by injection PLP139-151 peptide (50 μg) emulsified in complete Freund's adjuvant (BD Diagnostics), containing killed Mycobacterium tuberculosis (400 μg/ml) in a volume of (50 μl per area). Animals were randomized to receive by QuadraMune™ by gavage, and/or Copaxone. Mice where observed for symptoms at days 10, 20 and 30.
Clinical scores (0, no symptoms; 1, limp tail; 2, partial paralysis of hind limbs; 3, complete paralysis of hind limbs or partial hind and front limb paralysis; 4, tetraparalysis; 5, moribund; 6, death).
Experimental autoimmune encephalomyelitis was induced in female SJL/J (6-8 weeks old) by injection PLP^139-151 peptide (50 μg) emulsified in complete Freund's adjuvant (BD Diagnostics), containing killed Mycobacterium tuberculosis (400 μg/ml) in a volume of (50 μl per area). Animals were randomized to receive pterostilbene by gavage, and/or Copaxone. Mice where observed for symptoms at days 10, 20 and 30.
Experimental autoimmune encephalomyelitis was induced in female SJL/J (6-8 weeks old) by injection PLP139-151 peptide (50 μg) emulsified in complete Freund's adjuvant (BD Diagnostics), containing killed Mycobacterium tuberculosis (400 μg/ml) in a volume of (50 μl per area). Animals were randomized to receive sulforaphane by gavage, and/or Copaxone. […]

The next assay relates to Treg. Conditions: in vivo; cited from earlier work.
Assay [3] concerns CD4+, CD25+, FoxP3+ Treg cells. The settings on record: responding patients; cited from earlier work.
[4] abbreviates: serum, not significantly different.

`C[C@H](CCC(=O)NCC(=O)O)[C@H]1CC[C@H]2[C@@H]3[C@@H](O)C[C@@H]4C[C@H](O)CC[C@]4(C)[C@H]3CC[C@]12C` [GUDCA]: the “extension of neovascular and avascular areas” value in assay [1] was “no changes”.

For `C[C@H](CCC(=O)NCCS(=O)(=O)O)[C@H]1CC[C@H]2[C@@H]3[C@@H](O)C[C@@H]4C[C@H](O)CC[C@]4(C)[C@H]3CC[C@]12C` [TUDCA, tauroursodeoxycholic acid], the “proliferation and viability of osteoblasts and osteoblast differentiation and mineralization” value with osteoblasts (100 nM, 1 μM) is “significantly increased”. Moreover, the “detrimental effects of methylprednisolone (methylprednisolone-induced osteoblast apoptosis)” value in the assay on osteoblasts is reported as “neutralized”. Besides, in the assay with acute pancreatitis, the “expression of farnesoid-x-receptor (FXR) and its target gene FGF15” value is recorded as “downregulated”; the “pancreatic and intestinal barrier function injury” value is recorded as “mitigated”. The “Inflammation and IL-6 production triggered by infection with Brucella abortus” value in the assay on IL-6 production was “reduced”. Besides, in the assay on osteoporosis (setting [4]), the CTX level result is given as “lower” and the PINP level entry is reported as “higher”. Besides, in the assay on osteoporosis, the “percentage bone volume with respect to total bone volume, bone mineral density, distal femur trabeculae” value is given as “increased”; the “trabecular structures in the distal femur (micro-CT and histology)” value was “preserved more trabecular structures”. For the same compound, the “extension of neovascular and avascular areas” value in assay [1] is on record as “no changes”.

Take `C[S+]([O-])CCCCN=C=S` (stereo not drawn) [sulforaphane]: the “EAE Score” value in assay [2] is given as “reduction in EAE Score”.

Regarding `CC1=CC(=O)C(C(C)C)=CC1=O` [thymoquinone], in assay [2], the “EAE Score” value is given as “reduction in EAE Score”.

Regarding Interferon beta, in the assay on Treg, the “Treg activity after initiation of therapy” value is “renormalization of Treg activity”.

In the case of glatiramer acetate, in assay [3], the “CD4+, CD25+, FoxP3+ Treg cells in peripheral blood and cerebral spinal fluid” value was “increased levels”.
